Assay results taken from patent US20110281807A1, “PLANT DISEASE CONTROL AGENT COMPRISING D-TAGATOSE AS ACTIVE INGREDIENT, AND PLANT DISEASE CONTROL METHOD” (NATIONAL UNIVERSITY CORPORATION KAGAWA UNIVERSITY, priority 2008, published 2011).
Values joined by “and” are separate entries in the source; they are usually repeats but may differ in a detail not shown here. Equal entries are not always repeated. Where two headings read alike, the source gives them in different places.

Key:
[1] = test system: Pseudoperonospora cubensis; assay: cucumber downy mildew, pot test: curative effect
Procedure: Test plants (cucumber, variety: Sagami hanpaku) were seeded and grown until the one true leaf stage. And then a sporangium suspension of Pseudoperonospora cubensis containing 1×10^3/ml were sprayed on the back side of the leaves of test plants for inoculation and then the plants were put for 16 hours in an inoculation chamber (20° C. to 23° C.) to promote disease. For a curative test, the inoculated plants as described above were used.
D-Tagatose was diluted to 5%, 1% and 0.5% with distilled water and then 10 ml of the dilution was sprayed on the test plant. Seven days after the spraying of D-tagatose the disease severity of the test plants was observed and the effectiveness of test sample was judged. Tests were carried out using two plants for each test set and the disease severity of the test plants was judged. The control value was calculated from the degree of disease severity as in Example 1.

[2] = test system: Pseudoperonospora cubensis; assay: cucumber downy mildew, pot test: preventive effect; conditions: for Preventive value (3 DAS): inoculated 3 days after spraying; for Preventive value (5 DAS): inoculated 5 days after spraying
Procedure: Test plants (cucumber, variety: Sagami hanpaku) were seeded and grown until the one true leaf stage. D-Tagatose was diluted to 5%, 1% and 0.5% with distilled water and then 10 ml of the dilution was sprayed on the test plant. Three or five days after spraying, a sporangium suspension of Pseudoperonospora cubensis containing 1×10^3/ml were inoculated by spraying on test plants and then the plants were put for 16 hours in an incubation chamber (20° C. to 23° C.) to promote disease. Seven days after inoculation the disease severity of the test plants was observed and the effectiveness of test sample was judged. Tests were carried out using two plants for each test set and the disease severity of the test plants was judged in accordance with the following criteria. The preventive value was calculated from the degree of the disease severity.
(§1) 0 (No lesion) 1 (Lesion area was not more than 40%) 2 ((Lesion area was 40%-80%) 3 (Lesion area was not less than 80%)
Preventive value=100{1−(n/N)} N=disease severity of untreated leaf, n=disease severity of the tested leaf

[3] = test system: Pseudoperonospora cubensis; conditions: alone
Procedure: Test plants (cucumber, variety: Sagami hanpaku) were seeded and grown until the one true leaf stage. D-tagatose alone was diluted to 5%, 1%, 0.5% and 0.1%, and the combination of D-tagatose and other saccharide were diluted to be 0.5% and 0.5% solution respectively with distilled water, and then 10 ml of the dilution was sprayed on the test plant. Three days after spraying of the solution, a sporangium suspension of Pseudoperonospora cubensis containing 1×10^3/ml were inoculated by spraying on test plants and then put them for 16 hours in an inoculation chamber (20° C. to 23° C.) to promote disease. Seven days after inoculation the disease severity of the test plants was observed and the effectiveness of test sample was judged. Tests were carried out using two plants for each test set and the disease severity of the test plants was judged in accordance with the following criteria. The preventive value was calculated from the degree of disease severity as in example 1.
Synergistic effect was determined by the Colby's equation below.
X is the observed effect, in percentage, of the first active ingredient and, and Y is the observed effect, in percentage, of the second active ingredient. E is the effect, in percentage, of the mixture expected from additive contribution of the individual components.

[4] = test system: Phytophthora infestans; type: in vivo; conditions: inoculated 3 days after spraying
[5] = test system: Pythium aphanidermatum; conditions: 10 ml soil drench, from germination rate after 2 weeks
Procedure: Five seeds of test plants (cucumber, variety: Sagami hanpaku) were sowed in a pot (5×5 cm), which contains infested soil with Pythium aphanidermatum (mycelium 100 g/1 L soil) and the seeds were covered with the soil. […] After 2 weeks, the disease severity of the test plants was observed and the effectiveness of test sample was judged. Tests were carried out in triplicate using 5 plants for each test set and the preventive value was calculated from the germination rate.

[6] = test system: Pythium glaminicola; conditions: 10 ml soil drench, from percentage of onset area after 2 weeks
Procedure: Four germinated rice seeds (variety: Koshihikari) were sowed in a pot (5×5 cm), which contains infected soil with Pythium glaminicola (mycelium 100 g/1 L soil). The pot was drenched with 10 ml of D-tagatose dilution and the seeds were covered with soil. After 2 weeks, the disease severity of the test plants per rice seedling in 25 cm^2 was observed and the effectiveness of test sample was judged. Tests were carried out in duplicate and the preventive value was calculated from percentage of onset area.

[7] = test system: Pseudoperonospora cubensis; conditions: 5 ml soil drench, inoculated 5 days after drenching
Procedure: Test plants (cucumber, variety: Sagami hanpaku) were seeded and grown until the one true leaf stage. D-Tagatose was diluted to 5% and 1% with distilled water and then 5 ml of the dilution was drenched into the soil of the pot. Five days after drenching, a sporangium suspension of Pseudoperonospora cubensis containing 1×10^3/ml were noculated by spraying on the test plants and then put them for 16 hours in an inoculation chamber (20° C. to 23° C.) to promote disease. Seven days after inoculation the disease severity of the test plants was observed and the effectiveness of test sample was judged. Tests were carried out using two plants for each test set and the disease severity of the test plants was judged. The preventive value was calculated from the degree of disease severity as in Example 1.

[8] = test system: Peronospora parasitica; assay: cabbage downy mildew, pot test: preventive effect; conditions: inoculated 3 days after spraying
Procedure: Test plants (cabbage, variety: Shikidori) were seeded and grown until 4 leaves stage. […] Three days after spraying, a suspension containing condia of cucumber downy mildew (Peronospora parasitica) was inoculated by spraying on test plants. Seven days after inoculation the disease severity of the test plants was observed and the effectiveness of test sample was judged. Tests were carried out using two plants for each test set and the disease severity of test plants was judged in accordance with the following criteria. The preventive value was calculated from the degree of disease severity as in Example 1.

[9] = test system: Sphaerotheca fuligine; assay: cucumber powdery mildew, pot test: preventive effect; conditions: inoculated 3 days after spraying
Procedure: Test plants (cucumber, variety: Sagami-hanpaku) were seeded and grown until the one true leaf stage. D-tagatose was diluted to 5% and 1% with distilled water and then 10 ml of the dilution was sprayed on the test plant. Three days after spraying, a condia suspension of Sphaerotheca fuligine was inoculated by spraying on test plants. Seven days after inoculation the disease severity of the test plants was observed and the effectiveness of test sample was judged. Tests were carried out using two plants for each test set and the disease severity of the test plants was judged in accordance with the following criteria.

[10] = test system: Phytophthora infestans; assay: whole plant or invertebrate; type: in vivo; conditions: Phytophthora infestans, in Solanum lycopersicum, 168 h, read-out: Preventive value
[11] = test system: Pythium aphanidermatum; assay: cucumber damping-off, pot test: soil drench of D-tagatose combined with fungicides; conditions: Pythium aphanidermatum, in Cucumis sativus, soil, 336 h, read-out: Preventive value
[12] = test system: Puccinia recondita; conditions: Puccinia recondita, in Triticum aestivum, 168 h, read-out: Preventive value
Procedure: Test plants (variety: Nourin 61 gou) were sowed and grown until two leaves stage.
D-Tagatose and fungicide were diluted to 10000 ppm and the concentration listed in table 19, respectively, with distilled water, and 10 ml of the dilution was sprayed thoroughly on the plants. Three days after the spraying of the dilution, the plants were inoculated with Puccinia recondita containing 1×10^3/ml and then put for 16 hours in an inoculation chamber (20° C. to 23° C.) to promote disease. Seven days after inoculation the disease severity of the test plants was observed and the effectiveness of test sample was judged.

[13] = test system: Botrytis cinerea; conditions: Botrytis cinerea, in Solanum lycopersicum, 168 h, read-out: Preventive value
Procedure: Test plants (tomato, variety: Ogata-fukujyu) were seeded and grown until the three leaf stage. D-Tagatose and fungicide were diluted to 10000 ppm and the concentrations liste in table 23, respectively, with distilled water and 10 ml of the dilution was sprayed on the plants. Three days after spraying the solution, condia suspension of Botrytis cinerea were inoculated by spraying on test plants and then put for 16 hours in an inoculation chamber (20° C. to 23° C.) to promote disease. Seven days after inoculation, the disease severity of the test plants was observed and the effectiveness of test sample was judged.

[14] = test system: Plasmopara viticola; conditions: Plasmopara viticola, 168 h, read-out: Preventive value
Procedure: Test plants (variety: Neo Muscat) were seeded and grown until three leaves. D-Tagatose was diluted to 5000 ppm and the fungicides were diluted to the concentrations listed in table 16, with distilled water, and 10 ml of the dilution was sprayed on the plants. Three days after the spraying of the dilution, the plants were infected by spraying a sporangium suspension of Plasmopara viticola containing 1×10^3/ml and then put for 16 hours in an inoculation chamber (20° C. to 23° C.) to promote disease. The disease severity of the test plants was observed 7 days after inoculation, and the effectiveness of test sample was judged.

[15] = test system: Pseudoperonospora cubensis; conditions: Pseudoperonospora cubensis, in Cucumis sativus, 168 h, read-out: Preventive value
Procedure: Test plants (cucumber, variety: Sagami hanpaku) were seeded and grown until the one true leaf stage. And then, a sporangium suspension of Pseudoperonospora cubensis containing 1×10^3/ml were spraying for inoculation on the back side of the leaves of test plants and then put for 16 hours in an inoculation chamber (20° C. to 23° C.) to promote disease. For a curative test, the inoculated plants as described above were used.
D-Tagatose was diluted to 5000 ppm and the fungicides were diluted to the concentrations listed in table 15, with distilled water, and 10 ml of the dilution was sprayed. Seven days after inoculation the disease severity of the test plants was observed and the effectiveness of test sample was judged.

[16] = test system: Pseudoperonospora cubensis; conditions: Pseudoperonospora cubensis, in Cucumis sativus, 168 h, read-out: Preventive value; remark: listed apart in the source
Procedure: Test plants (cucumber, variety: Sagami hanpaku) were seeded and grown until the one true leaf stage. D-Tagatose was diluted to 5000 ppm and the fungicides were diluted to the concentrations listed in table 14, with distilled water. And then 10 ml of the dilution was sprayed on the test plant. Three days after spraying of the solution, a sporangium suspension of Pseudoperonospora cubensis containing 1×10^3/ml were inoculated by spraying on test plants and then put for 16 hours in an inoculation chamber (20° C. to 23° C.) to promote disease. Seven days after inoculation the disease severity of the test plants was observed and the effectiveness of the test sample was judged. Tests were carried out using two plants for each test set and the disease severity of the test plants was judged in accordance with the following criteria. The preventive value was calculated from the degree of disease severity.
as §1
Preventive value=100{1−(n/N)} N=disease severity of untreated leaf, n=disease severity of the test leaf Synergistic effect was determined by Colby's equation.

[17] = test system: Erysiphe graminis f.sp. hordei; conditions: Blumeria graminis, in Hordeum vulgare, 168 h, read-out: Preventive value
Procedure: Test plants (barley, variety: Akashinriki) were seeded and grown until the one leaf stage. D-tagatose and fungicide were diluted to 5000 ppm and the concentrations listed in table 21, respectively, with distilled water and 10 ml of the dilution was sprayed thoroughly on the plants. Three days after spraying, a condia suspension of Erysiphe graminis f.sp. hordei was inoculated by spraying on test plants. 7 days after inoculation the disease severity of the test plants was observed and the effectiveness of test sample was judged.

[18] = test system: Sphaerotheca fuliginea; conditions: Podosphaera fuliginea, in Cucumis sativus, 168 h, read-out: Preventive value
[19] = test system: Puccinia recondita; assay: wheat brown rust, field trial; conditions: 200 ppm
Procedure: Test plants (variety: Nourin 61 gou) were sowed and grown until heading stage. D-Tagatose was diluted to 5% with distilled water and sprayed thoroughly on the plants two times every 8 days. Three days after the first spraying of the dilution, wheat leaves inoculated with wheat fusarium blight (Puccinia recondita) were kept in the test plants. The disease severity of the test plants was observed 21 days after last spraying and the effectiveness of test sample was judged. Tests were carried out in duplicate. One plot of each test was 5 m^2. The disease severity of the test plants was judged in accordance with the following criteria. The preventive value was calculated from the degree of disease severity.

[20] = test system: Pyricularia oryze; assay: whole plant or invertebrate; type: in vivo; conditions: Pyricularia, in Oryza sativa, 168 h, read-out: Preventive value

`CSC(=O)c1cccc2nnsc12` [Acibenzolar-S-Methyl, acibenzolar-S-methyl] was tested, and the “Preventive value (control value)” value ([1]; 50 ppm sprayed after inoculation (curative)) was 25.0, the “Preventive value (3 DAS)” value ([2]; 50 ppm spray) was 91.7 and the “Preventive value (5 DAS)” value ([2]; 50 ppm spray) was 99.2. It also gave a Preventive value ([3]; 50 ppm) of 95.0.
`O=C(CO)[C@@H](O)[C@H](O)[C@H](O)CO` [D-Fuctose, D-fructose] gave a Preventive value ([3]; 5000 ppm) of 0.0.
In the case of `O=C[C@H](O)[C@@H](O)[C@H](O)[C@H](O)CO` [D-Glucose], the Preventive value ([4]; 50000 ppm spray) is reported as 0.0, the Preventive value ([4]; 100000 ppm spray) is reported as 0.0 and the “Preventive value (control value)” value ([1]; 5000 ppm sprayed after inoculation (curative)) is reported as 0.0. The “Preventive value (control value)” value ([1]; 10000 ppm sprayed after inoculation (curative)) was 0.0, the “Preventive value (control value)” value ([1]; 50000 ppm sprayed after inoculation (curative)) was 0.0 and the Preventive value ([5]; 10000 ppm) was 0.0. For the same compound, the Preventive value ([5]; 50000 ppm) was 0.0, the Preventive value ([6]; 10000 ppm) was 3.0 and the Preventive value ([6]; 50000 ppm) was 4.5. It also gave a Preventive value ([7]; 10000 ppm) of 0.0, a Preventive value ([7]; 50000 ppm) of 0.0 and a Preventive value ([8]; 10000 ppm spray) of 0.0. For the same compound, the Preventive value ([8]; 50000 ppm spray) was 0.0, the “Preventive value (3 DAS)” value ([2]; 5000 ppm spray) was 0.0 and the “Preventive value (5 DAS)” value ([2]; 5000 ppm spray) was 0.0. For the same compound, the “Preventive value (3 DAS)” value ([2]; 10000 ppm spray) was 0.0, the “Preventive value (5 DAS)” value ([2]; 10000 ppm spray) was 0.0 and the “Preventive value (3 DAS)” value ([2]; 50000 ppm spray) was 0.0. For the same compound, the “Preventive value (5 DAS)” value ([2]; 50000 ppm spray) was 0.0, the Preventive value ([9]; 10000 ppm spray) was 0.0 and the Preventive value ([9]; 50000 ppm spray) was 0.0.
`O=C[C@@H](O)[C@@H](O)[C@H](O)[C@H](O)CO` [D-Mannose, D-mannose] was tested, and the Preventive value ([3]; 5000 ppm) was 0.0.
`O=C(CO)[C@H](O)[C@H](O)[C@H](O)CO` [D-Psicose, D-psicose] gave a Preventive value ([3]; 5000 ppm) of 0.0.
For `O=C(CO)[C@H](O)[C@@H](O)[C@H](O)CO` [D-Sorbose, D-sorbose], the Preventive value ([3]; 5000 ppm) was 0.0.
`COCC(=O)N(c1c(C)cccc1C)C(C)C(=O)OC` (centres unmarked) [Metalaxyl, metalaxyl] was tested, and the Preventive value ([4]; 300 ppm spray) was 93.3, the pest or weed control at 2 ppm [10] was 67% and the “Preventive value (control value)” value ([1]; 300 ppm sprayed after inoculation (curative)) was 100.0. It also gave a Preventive value ([5]; 300 ppm) of 95.0, a Preventive value ([7]; 300 ppm) of 100.0 and a Preventive value ([8]; 600 ppm spray) of 98.4. The “Preventive value (3 DAS)” value ([2]; 300 ppm spray) was 100.0, the “Preventive value (5 DAS)” value ([2]; 300 ppm spray) was 100.0 and the pest or weed control at 5 ppm [11] was 83%. For the same compound, the pest or weed control at 250 ppm [12] was 0%, the pest or weed control at 250 ppm [13] was 0% and the pest or weed control at 2 ppm [14] was 50%. The pest or weed control at 2 ppm [15] was 33%, the pest or weed control at 2 ppm [16] was 67% and the pest or weed control at 250 ppm [17] was 0%. For the same compound, the pest or weed control at 250 ppm [18] was 0% and the Preventive value ([3]; 300 ppm) was 100.0.
In the case of `C=CCOC1=NS(=O)(=O)c2ccccc21` [Probenazole, probenazole], the “Preventive value (control value)” value ([1]; 100 ppm sprayed after inoculation (curative)) is reported as 18.3, the “Preventive value (3 DAS)” value ([2]; 100 ppm spray) is reported as 33.3 and the “Preventive value (5 DAS)” value ([2]; 100 ppm spray) is reported as 95.0. For the same compound, the Preventive value ([3]; 100 ppm) was 66.7.
With `CC(C)(C)C(O)(CCc1ccc(Cl)cc1)Cn1cncn1` (centres unmarked) [Tebuconazole, tebuconazole] the “D.D.S (Degree of disease severity), Av” value ([19]; average of plots) was 0.2, the “Leaves number(n) of disease severity 0” value ([19]; per plot (1, 2), 100 leaves) was 98 and 100 and the “Leaves number(n) of disease severity 2” value ([19]; per plot (1, 2), 100 leaves) was 0. The “Leaves number(n) of disease severity 3” value ([19]; per plot (1, 2), 100 leaves) was 0, the “Leaves number(n) of disease severity 4” value ([19]; per plot (1, 2), 100 leaves) was 0 and the “Leaves number(n) of disease severity 5” value ([19]; per plot (1, 2), 100 leaves) was 0. For the same compound, the “Leaves number(n) of disease severity 6” value ([19]; per plot (1, 2), 100 leaves) was 0, the “P.V. (Preventive value), Av” value ([19]; sprayed two times every 8 days, rated 21 days after last spraying) was 99.8 and the pest or weed control at 0.4 ppm [12] was 50%. The pest or weed control at 10 ppm [13] was 33%, the pest or weed control at 0.4 ppm [17] was 67% and the pest or weed control at 0.4 ppm [18] was 73%.
Compound `CC(C)CC(C)c1sccc1NC(=O)c1cn(C)nc1C(F)(F)F` (centres unmarked) [penthiopyrad] has a pest or weed control at 50 ppm [10] of 0%, a pest or weed control at 50 ppm [20] of 40% and a pest or weed control at 250 ppm [11] of 0%. The pest or weed control at 0.4 ppm [12] was 67%, the pest or weed control at 10 ppm [13] was 67% and the pest or weed control at 50 ppm [14] was 0%. It also gave a pest or weed control at 50 ppm [15] of 0%, a pest or weed control at 50 ppm [16] of 0% and a pest or weed control at 0.4 ppm [17] of 67%. It also gave a pest or weed control at 0.4 ppm [18] of 50%.
In the case of `C[Si](C)(C)CC(O)(Cn1cncn1)c1ccc(F)cc1` (centres unmarked) [simeconazole], the pest or weed control at 250 ppm [10] is reported as 0%, the pest or weed control at 250 ppm [20] is reported as 73% and the pest or weed control at 250 ppm [11] is reported as 0%. For the same compound, the pest or weed control at 10 ppm [12] was 67%, the pest or weed control at 50 ppm [13] was 33% and the pest or weed control at 250 ppm [14] was 0%. It also gave a pest or weed control at 250 ppm [15] of 0%, a pest or weed control at 250 ppm [16] of 0% and a pest or weed control at 0.4 ppm [17] of 50%. The pest or weed control at 0.4 ppm [18] was 83%.
For `COC(=O)NC(=S)Nc1ccccc1NC(=S)NC(=O)OC` [thiophanate-methyl], the pest or weed control at 250 ppm [10] was 0%, the pest or weed control at 250 ppm [20] was 83% and the pest or weed control at 250 ppm [11] was 0%. It also gave a pest or weed control at 10 ppm [12] of 40%, a pest or weed control at 50 ppm [13] of 83% and a pest or weed control at 250 ppm [14] of 0%. For the same compound, the pest or weed control at 250 ppm [15] was 0%, the pest or weed control at 250 ppm [16] was 0% and the pest or weed control at 10 ppm [17] was 83%. For the same compound, the pest or weed control at 10 ppm [18] was 83%.
